{"source": "patent US9511112B2", "about": "“Antibacterial composition for topical use” (GENERAL TOPICS S.r.l., priority 2012, dated 2016)", "system": "bacterial population", "test": "Microbiocidal activity by the same methods, triethyl citrate alone versus composition", "type": "cell-based", "details": "4.5 w/w % in water q.s. to 100 w/w %, without the Peptide", "note": "Where a name gives a salt, the structure may show the parent alone."}
{"smiles": "CCOC(=O)CC(O)(CC(=O)OCC)C(=O)OCC", "note": "[triethyl citrate, triethyl-2-hydroxypropane-1,2,3-tricarboxylate]", "values": [{"measurement": "survival of the bacterial population", "value": 25, "unit": "%"}]}
